One assay deals with DNMT3B (Homo sapiens (Human), UniProt Q9UBC3). As to the kind of experiment: DNMT3B breaklight assay. Type of assay: biochemical.
The test system of assay [1] is erythroid progenitor cells (EPCs). The assay is described as follows: Fetal hemoglobin (HbF) ELISA in day 7 erythroid progenitor cells. Type of assay: cell-based, human. The following applies: Homo sapiens, Erythroid progenitor cell, HbF ELISA, day 7 EPCs, 5 days; read-out: EPC ELISA (pEC50 category) (converted). The method in brief: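 HbF induction was read by anti-HbF sandwich ELISA (HRP/TMB, OD450) on lysates and normalized to vehicle-treated cells. Cells were day 7 erythroid progenitors derived from human bone marrow CD34+ cells, seeded at 1,000/well with 3 U/mL rhEPO. Compound was given for 5 days at 37 °C at final concentrations […].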
On the technique in general: ELISA stands for enzyme-linked immunosorbent assay.

The next assay concerns the target DNMT1 (Homo sapiens, UniProt P26358). The assay is described as follows: DNMT1 biochemical activity, breaklight assay and/or SPA assay.
The mark [2] stands for this setting: read-out: DNMT3B Breaklight IC50.
[3] abbreviates: binned activity in either the breaklight or the SPA assay.
Setting [4] is: breaklight assay and/or SPA assay, repeated experimental runs.
Where [5] appears, read: breaklight assay and/or SPA assay, repeated experimental runs, read-out: average pIC50 against DNMT1 (converted).
Where [6] appears, read: binned activity in either the breaklight or the SPA assay, read-out: DNMT1 BioChemical (pIC50 category) (converted).

Here are results for 25 molecules from patent US10975056B2 (GlaxoSmithKline Intellectual Property Development Limited, priority 2016, dated 2021).

Values joined by “and” are separate entries in the source; they are usually repeats but may differ in a detail not shown here. Equal entries are not always repeated. Structures can show the parent of a compound that is named as a salt. Where two headings read alike, the source gives them in different places.

Chain of DNMT1 (P26358 whole entry, looked up): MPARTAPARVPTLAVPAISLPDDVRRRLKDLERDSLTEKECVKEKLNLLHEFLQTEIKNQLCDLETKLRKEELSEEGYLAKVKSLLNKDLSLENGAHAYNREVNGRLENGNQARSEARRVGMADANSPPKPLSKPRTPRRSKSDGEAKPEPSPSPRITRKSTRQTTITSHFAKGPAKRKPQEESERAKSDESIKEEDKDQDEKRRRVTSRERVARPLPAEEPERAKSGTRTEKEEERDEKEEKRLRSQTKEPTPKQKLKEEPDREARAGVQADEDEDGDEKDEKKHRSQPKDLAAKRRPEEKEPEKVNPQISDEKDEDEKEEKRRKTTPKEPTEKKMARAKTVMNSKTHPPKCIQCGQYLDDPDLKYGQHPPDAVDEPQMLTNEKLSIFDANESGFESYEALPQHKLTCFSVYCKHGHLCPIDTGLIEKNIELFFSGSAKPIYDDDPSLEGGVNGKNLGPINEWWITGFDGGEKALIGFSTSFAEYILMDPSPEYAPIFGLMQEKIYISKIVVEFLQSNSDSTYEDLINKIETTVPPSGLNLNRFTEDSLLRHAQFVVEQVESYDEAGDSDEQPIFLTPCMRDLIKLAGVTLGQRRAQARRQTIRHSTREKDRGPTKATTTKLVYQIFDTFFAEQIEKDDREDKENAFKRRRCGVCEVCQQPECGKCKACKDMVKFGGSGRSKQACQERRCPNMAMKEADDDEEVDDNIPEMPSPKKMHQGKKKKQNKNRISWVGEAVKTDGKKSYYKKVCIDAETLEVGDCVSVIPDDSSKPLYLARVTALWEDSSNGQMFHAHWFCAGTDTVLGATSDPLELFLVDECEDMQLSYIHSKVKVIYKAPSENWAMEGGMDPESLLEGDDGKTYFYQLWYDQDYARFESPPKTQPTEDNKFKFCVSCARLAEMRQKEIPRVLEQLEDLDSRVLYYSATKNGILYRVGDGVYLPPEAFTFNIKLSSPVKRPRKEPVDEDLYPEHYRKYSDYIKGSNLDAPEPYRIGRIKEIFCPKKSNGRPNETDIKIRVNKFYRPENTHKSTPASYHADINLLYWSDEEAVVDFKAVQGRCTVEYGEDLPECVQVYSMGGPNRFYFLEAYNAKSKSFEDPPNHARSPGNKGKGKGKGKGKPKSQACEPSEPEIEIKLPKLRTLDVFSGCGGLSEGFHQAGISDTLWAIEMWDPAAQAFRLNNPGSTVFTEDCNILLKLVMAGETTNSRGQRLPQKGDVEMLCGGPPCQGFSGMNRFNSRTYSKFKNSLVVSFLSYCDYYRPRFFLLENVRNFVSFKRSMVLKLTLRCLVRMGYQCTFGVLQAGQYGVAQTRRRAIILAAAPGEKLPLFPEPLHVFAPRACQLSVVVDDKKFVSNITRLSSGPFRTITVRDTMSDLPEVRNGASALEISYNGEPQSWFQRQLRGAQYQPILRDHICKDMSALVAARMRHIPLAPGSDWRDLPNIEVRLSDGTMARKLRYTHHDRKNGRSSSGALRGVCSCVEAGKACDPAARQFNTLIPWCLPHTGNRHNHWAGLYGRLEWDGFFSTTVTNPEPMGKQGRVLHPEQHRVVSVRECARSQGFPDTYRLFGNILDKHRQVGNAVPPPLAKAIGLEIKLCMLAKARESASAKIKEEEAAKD

`CCc1c(C#N)c(SCc2ccc(S(N)(=O)=O)cc2)nc(N2CCCN(C)CC2)c1C#N` [Example 76, 4-(((3,5-Dicyano-4-ethyl-6-(4-methyl-1,4-diazepan-1-yl)pyridin-2-yl)thio)methyl)benzenesulfonamide]: the IC50 on DNMT3B (setting [2]) was > 250 µM. Also, the EC50 in assay [1] was 0.316 to 1 µM.
Regarding `CCc1c(C#N)c(SCc2ccc(CC(N)=O)cc2)nc(N2CCCN(C)CC2)c1C#N` [Example 83, 2-(4-(((3,5-dicyano-4-ethyl-6-(4-methyl-1,4-diazepan-1-yl)pyridin-2-yl)thio)methyl)phenyl)acetamide], the “DNMT1 BioChemical (pIC50 category)” value at DNMT1 (setting [3]) is “D (Category D: ≥6.5)”. In addition, the “average pIC50 against DNMT1” value on DNMT1 (setting [4]) is on record as > 6.5. Besides, the IC50 at DNMT3B (setting [2]) was > 250 µM. In addition, the EC50 in assay [1] is < 0.316 µM.
For the molecule `CCc1c(C#N)c(SCc2ccc(S(=O)(=O)NC)cc2)nc(N2CCCN(C)CC2)c1C#N` [Example 104, 4-(((3,5-Dicyano-4-ethyl-6-(4-methyl-1,4-diazepan-1-yl)pyridin-2-yl)thio)methyl)-N-methylbenzenesulfonamide], the “DNMT1 BioChemical (pIC50 category)” value on DNMT1 (setting [3]) is listed as “D (Category D: ≥6.5)”. For the same molecule, on DNMT3B (setting [2]), the IC50 is 254 µM. In addition, the EC50 in assay [1] was < 0.316 µM.
For `CCc1c(C#N)c(SCc2ccc(CC(=O)NC)cc2)nc(N2CCCN(C)CC2)c1C#N` [Example 84, 2-(4-(((3,5-Dicyano-4-ethyl-6-(4-methyl-1,4-diazepan-1-yl)pyridin-2-yl)thio)methyl)phenyl)-N-methylacetamide] the same measures were “D (Category D: ≥6.5)”, > 250 µM and < 0.316 µM.
In the case of `CCc1c(C#N)c(SCc2ccc(CNC(=O)CO)cc2)nc(N2CCCN(C)CC2)c1C#N` [Example 86, N-(4-(((3,5-Dicyano-4-ethyl-6-(4-methyl-1,4-diazepan-1-yl)pyridin-2-yl)thio)methyl)benzyl)-2-hydroxyacetamide], the “DNMT1 BioChemical (pIC50 category)” value at DNMT1 (setting [3]) is listed as “D (Category D: ≥6.5)”. Moreover, the “average pIC50 against DNMT1” value on DNMT1 (setting [4]) was > 6.5. Further, the IC50 was 0.2 µM on DNMT1 (setting [5]) and > 250 µM on DNMT3B (setting [2]). Further, the EC50 in assay [1] is < 0.316 µM.
`CCc1c(C#N)c(SC(C(N)=O)c2ccccc2)nc(N(C)C)c1C#N` (centres unmarked) [Example 3, 2-{[3,5-dicyano-6-(dimethylamino)-4-ethylpyridin-2-yl]sulfanyl}-2-phenylacetamide]: the IC50 on DNMT3B (setting [2]) is > 500 µM; at DNMT3B (repeated experimental runs, read-out: average IC50, DNMT3B breaklight assay) it was > 500 µM. Also, the EC50 in assay [1] is 0.316 to 1 µM.
`CCc1c(C#N)c(SC(C(N)=O)c2ccccc2)nc(N2CCC(NC(=O)[C@H](C)N)CC2)c1C#N` (stereo partly drawn) [Example 138, (2S)-2-Amino-N-(1-(6-((2-amino-2-oxo-1-phenylethyl)thio)-3,5-dicyano-4-ethylpyridin-2-yl)piperidin-4-yl)propanamide, Trifluoroacetic Acid Salt]: the “DNMT1 BioChemical (pIC50 category)” value at DNMT1 (setting [3]) is recorded as “D (Category D: ≥6.5)”. Also, the “average pIC50 against DNMT1” value at DNMT1 (breaklight assay and/or SPA assay, repeated experimental runs, Trifluoroacetic Acid Salt) is reported as > 6.5. Moreover, the IC50 on DNMT1 (setting [5]) was 0.1 µM; at DNMT3B (setting [2]), 167 µM. In addition, in assay [1], the EC50 was < 0.316 µM.
As to `CCc1c(C#N)c(SCc2ccc(=O)[nH]c2)nc(N(C)C)c1C#N` [Example 74, 2-(Dimethylamino)-4-ethyl-6-(((6-oxo-1,6-dihydropyridin-3-yl)methyl)thio)pyridine-3,5-dicarbonitrile], the IC50 on DNMT1 (setting [6]) is 1 to 31.6 µM; on DNMT1 (setting [5]), ≥ 1 µM; at DNMT3B (setting [2]), > 250 µM. For the same molecule, the EC50 in assay [1] is 1 to 31.6 µM.
On to `CCc1c(C#N)c(SCc2ccc(CNC(C)=O)cc2)nc(N2CCCN(C)CC2)c1C#N` [Example 77, N-(4-(((3,5-Dicyano-4-ethyl-6-(4-methyl-1,4-diazepan-1-yl)pyridin-2-yl)thio)methyl)benzyl)acetamide], for which the “DNMT1 BioChemical (pIC50 category)” value on DNMT1 (setting [3]) is given as “D (Category D: ≥6.5)”. Also, on DNMT1 (setting [4]), the “average pIC50 against DNMT1” value is > 6.5. Also, on DNMT3B (setting [2]), the IC50 is > 250 µM. The EC50 in assay [1] was < 0.316 µM.
As to `CCc1c(C#N)c(S[C@H](C)c2ccc(N(C)S(C)(=O)=O)cc2)nc(N2CCC(N)CC2)c1C#N` (single isomer, unassigned) [Example 681, N-(4-(1-((6-(4-aminopiperidin-1-yl)-3,5-dicyano-4-ethylpyridin-2-yl)thio)ethyl)phenyl)-N-methylmethanesulfonamide], at DNMT1 (setting [3]), the “DNMT1 BioChemical (pIC50 category)” value is listed as “D (Category D: ≥6.5)”. For the same molecule, in assay [1], the EC50 was 1 to 31.6 µM.
As for `CCc1c(C#N)c(S[C@@H](C(N)=O)c2ccccc2)nc(N2CC[C@H](OP(=O)(O)O)C2)c1C#N` [Example 418, (S)-1-(6-(((R-2-amino-2-oxo-1-phenylethyl)thio-3,5-dicyano-4-ethylpyridin-2-yl)pyrrolidin-3-yldihydrogen phosphate], the IC50 on DNMT1 (setting [6]) was 1 to 31.6 µM. Besides, the EC50 in assay [1] is > 31.6 µM.
`CCc1c(C#N)c(SC(C(N)=O)c2ccccc2)nc(N2CCC(N3CCC[C@@H]3CO)CC2)c1C#N` (single isomer, unassigned) [Example 464]: the “DNMT1 BioChemical (pIC50 category)” value at DNMT1 (setting [3]) is reported as “D (Category D: ≥6.5)”. In addition, in assay [1], the EC50 was < 0.316 µM.
`CCc1c(C#N)c(SC(C(N)=O)c2ccccc2)nc(N2CCN(C(=O)C3(N)CCOCC3)CC2)c1C#N` (centres unmarked) [Example 141, 2-((6-(4-(4-Aminotetrahydro-2H-pyran-4-carbonyl)piperazin-1-yl)-3,5-dicyano-4-ethylpyridin-2-yl)thio)-2-phenylacetamide, Trifluoroacetic Acid Salt]: the “DNMT1 BioChemical (pIC50 category)” value at DNMT1 (setting [3]) was “D (Category D: ≥6.5)”. In assay [1], the EC50 was < 0.316 µM.
Regarding `CCc1c(C#N)c(SC(C(N)=O)c2ccccc2)nc(N2CCC(NC(=O)CO)CC2)c1C#N` (centres unmarked) [Example 286, N-(1-(6-((2-Amino-2-oxo-1-phenylethyl)thio)-3,5-dicyano-4-ethylpyridin-2-yl)piperidin-4-yl)-2-hydroxyacetamide], the “DNMT1 BioChemical (pIC50 category)” value on DNMT1 (setting [3]) is recorded as “D (Category D: ≥6.5)”. At DNMT1 (setting [5]), the IC50 was 0.316 to 1 µM and 0.316 µM. In addition, the EC50 in assay [1] was 1 to 31.6 µM.
As for `CCc1c(C#N)c(SC(C(N)=O)c2ccc(F)cc2F)nc(N2CC[C@H](O)C2)c1C#N` (some centres unmarked) [Example 430], on DNMT1 (setting [3]), the “DNMT1 BioChemical (pIC50 category)” value is “D (Category D: ≥6.5)”. Besides, the EC50 in assay [1] is 0.316 to 1 µM.
Consider `CCc1c(C#N)c(SC(C(N)=O)c2ccc(F)cc2)nc(N2CCC(NCC(C)(C)C)CC2)c1C#N` (centres unmarked) [Example 408, 2-((3,5-Dicyano-4-ethyl-6-(4-(neopentylamino)piperidin-1-yl)pyridin-2-yl)thio)-2-(4-fluorophenyl)acetamide], for which the “DNMT1 BioChemical (pIC50 category)” value at DNMT1 (setting [3]) was “D (Category D: ≥6.5)”. Besides, the EC50 in assay [1] is < 0.316 µM.
Consider `CCc1c(C#N)c(SC(C(N)=O)c2ccc(F)cc2)nc(N2CCC(N3CC(OC)C3)CC2)c1C#N` (centres unmarked) [Example 698, 2-((3,5-dicyano-4-ethyl-6-(4-(3-methoxyazetidin-1-yl)piperidin-1-yl)pyridin-2-yl)thio)-2-(4-fluorophenyl)acetamide], for which the “DNMT1 BioChemical (pIC50 category)” value on DNMT1 (setting [3]) was “D (Category D: ≥6.5)”. For the same molecule, in assay [1], the EC50 was < 0.316 µM.
For `CCc1c(C#N)c(SCc2ccc(CNC(=O)C(C)C)cc2)nc(N2CCCN(C)CC2)c1C#N` [Example 88, N-(4-(((3,5-Dicyano-4-ethyl-6-(4-methyl-1,4-diazepan-1-yl)pyridin-2-yl)thio)methyl)benzyl)isobutyramide], the IC50 on DNMT1 (setting [6]) was 0.316 to 1 µM. Besides, the EC50 in assay [1] was > 31.6 µM.
For `CCc1c(C#N)c(SC(C(N)=O)c2ccc(F)cc2)nc(N2CCC(N3CCCC3)CC2)c1C#N` (centres unmarked) [Example 505, 2-((3,5-dicyano-4-ethyl-6-(4-(pyrrolidin-1-yl)piperidin-1-yl)pyridin-2-yl)thio)-2-(4-fluorophenyl)acetamide], the “DNMT1 BioChemical (pIC50 category)” value on DNMT1 (setting [3]) is “D (Category D: ≥6.5)”. For the same molecule, in assay [1], the EC50 was < 0.316 µM.
As to `CCc1c(C#N)c(SCc2ccc(N(C)S(C)(=O)=O)cc2)nc(N2CCC(NCCO)CC2)c1C#N` [Example 692, N-(4-(((3,5-dicyano-4-ethyl-6-(4-((2-hydroxyethyl)amino)piperidin-1-yl)pyridin-2-yl)thio)methyl)phenyl)-N-methylmethanesulfonamide], on DNMT1 (setting [3]), the “DNMT1 BioChemical (pIC50 category)” value is on record as “D (Category D: ≥6.5)”. The EC50 in assay [1] is < 0.316 µM.
In the case of `CCc1c(C#N)c(SCc2ccccc2)nc(N2CCC(N)CC2)c1C#N` [Example 81, 2-(4-Aminopiperidin-1-yl)-6-(benzylthio)-4-ethylpyridine-3,5-dicarbonitrile], the IC50 is 0.316 to 1 µM at DNMT1 (setting [6]), ≥ 1 µM at DNMT1 (setting [5]) and > 250 µM on DNMT3B (setting [2]). Further, in assay [1], the EC50 is > 31.6 µM.
On to `CCc1c(C#N)c(SCc2ccc(N(C)S(C)(=O)=O)cc2)nc(N(C)CCN(C)CCOC)c1C#N` [Example 461], for which the “DNMT1 BioChemical (pIC50 category)” value at DNMT1 (setting [3]) was “D (Category D: ≥6.5)”. The EC50 in assay [1] is < 0.316 µM.
Turning to `CN(CCO)c1nc(SC(C(N)=O)c2ccccc2)c(C#N)c(C2CC2)c1C#N` (centres unmarked) [Example 386, 2-((3,5-Dicyano-4-cyclopropyl-6-((2-hydroxyethyl)(methyl)amino)pyridin-2-yl)thio)-2-phenylacetamide], the IC50 on DNMT1 (setting [6]) is 0.316 to 1 µM. Moreover, the EC50 in assay [1] was 1 to 31.6 µM.
Consider `CCc1c(C#N)c(SC(C(N)=O)c2ccc(F)cc2)nc(N2CCC(NC)CC2)c1C#N` (centres unmarked) [Example 526, 2-((3,5-dicyano-4-ethyl-6-(4-(methylamino)piperidin-1-yl)pyridin-2-yl)thio)-2-(4-fluorophenyl)acetamide], for which, at DNMT1 (setting [6]), the IC50 was < 0.316 µM. For the same molecule, the EC50 in assay [1] is < 0.316 µM.
Take `CCc1c(C#N)c(SCc2ccc(N)nc2)nc(N2CCCN(C)CC2)c1C#N` [Example 300, 2-(((6-Aminopyridin-3-yl)methyl)thio)-4-ethyl-6-(4-methyl-1,4-diazepan-1-yl)pyridine-3,5-dicarbonitrile]: the IC50 on DNMT1 (setting [6]) is 0.316 to 1 µM. The EC50 in assay [1] is 1 to 31.6 µM.
